Test results from patent publication US20090264485A1, “Pyrazole Derivatives, Their Manufacture and Their Use as Pharmaceutical Agents” (priority 2005, published 2009).

Assays:
[1] = test system: HEK293 cells; experiment: CellTiter-Glo Luminescent Cell Viability Assay in HEK293 cells; format: cell-based; conditions: Homo sapiens, 168 h, 7 days incubation, CellTiter-Glo luminescence
Source text: CellTiter-Glo™ Assay in HEK293 Cells
The CellTiter-Glo™ Luminescent Cell Viability Assay (Promega) is a homogeneous method of determining the number of viable cells in culture based on quantitation of the ATP present, which signals the presence of metabolically active cells.
HEK293 cells (human embryonic kidney cell line transformed by Adenovirus 5 fragments, ATCC-No. CRL 1573) were cultivated in Dulbecco's Modified Eagle Medium (DMEM) with Glutamax™ (Invitrogen, 31966-021), 5% Fetal Calf Serum (FCS, Sigma Cat-No. F4135 (FBS)), 100 Units/ml penicillin/100 μg/ml streptomycin (=Pen/Strep from Invitrogen Cat. No. 15140). For the assay the cells were seeded in 384 well plates, 5000 cells per well, in the same medium. The next day the test compounds were added in various concentrations ranging from 3 μM to 0.00015 μM (10 concentrations, 1:3 diluted). After 7 days the CellTiter-Glo™ assay was done according to the instructions of the manufacturer (CellTiter-Glo™ Luminescent Cell Viability Assay, from Promega). In brief: the cell-plate was equilibrated to room temperature for approximately 30 minutes and than the CellTiter-Glo™ reagent was added. The contents were carefully mixed for 15 minutes to induce cell lysis. After 45 minutes the luminescent signal was measured in Victor 2, (scanning multiwell spectrophotometer, Wallac).
• Medium: Dulbecco's Modified Eagle Medium (DMEM) with Glutamax™ (Invitrogen, 31966-021), 5% Fetal Calf Serum (FCS, Sigma Cat-No. F4135 (FBS)), Pen/Strep (Invitrogen Cat. No. 15140). • HEK293 (ATCC-No. CRL 1573): 5000 cells in 60 μl per well of 384 well plate (Greiner 781098, white plates) • Incubate 24 h at 37° C., 5% CO2
In general the dilution steeps are 1:3 • a) Add 8 μl of 10 mM stock solution of compound to 72 μl DMSO • b) dilute 9×1:3 (always 30 μl to 60 μl DMSO) in this DMSO dilution row (results in 10 wells with concentrations from 1000 μM to 0.06 μM) • c) dilute each concentration 1:4.8 (10 μl compound dilution to 38 μl medium) • d) dilute each concentration 1:10 (10 μl compound dilution to 90 μl medium) • e) add 10 μl of every concentration to 60 μl medium in the cell plate • resulting in final concentration of DMSO: 0.3% in every well • and resulting in final concentration of compounds from 3 μM to 0.00015 μM • Incubate 168 h (7 days) at 37° C., 5% CO2
• Add 30 μl CellTiter-Glo™ Reagent/well, • shake 15 minutes at room temperature • incubate further 45 minutes at room temperature without shaking.
• Victor 2 scanning multiwell spectrophotometer (Wallac), Luminescence mode • Determine IC50 with XL-fit (XLfit software (ID Business Solution Ltd., Guilford, Surrey, UK)).

SMILES | melting point | IC50 [1]
Cc1cc(OCc2coc(/C=C/c3ccc(C(F)(F)F)cc3F)n2)ccc1COCCc1ccnn1C [Example 4, 2-[2-(E)-(2-Fluoro-4-trifluoromethyl-phenyl)-vinyl]-4-{3-methyl-4-[2-(2-methyl-2H-pyrazol-3-yl)-ethoxymethyl]-phenoxymethyl}-oxazole] | – | 5 to 250 nM
Cc1cc(OCc2coc(/C=C/c3ccc(Cl)cc3)n2)ccc1C[S+]([O-])CCc1ccnn1C (centres unmarked) [Example 6, 2-[2-(E)-(4-Chloro-phenyl)-vinyl]-4-{3-methyl-4-[2-(2-methyl-2H-pyrazol-3-yl)-ethanesulfinylmethyl]-phenoxymethyl}-oxazole] | 169 to 171 °C | 5 to 250 nM
Cn1nccc1CC[S+]([O-])Cc1ccc(OCc2coc(/C=C/c3ccc(OC(F)(F)F)cc3)n2)cc1 (centres unmarked) [Example 8, 4-{4-[2-(2-Methyl-2H-pyrazol-3-yl)-ethanesulfinylmethyl]-phenoxymethyl}-2-[2-(E)-(4-trifluoromethoxy-phenyl)-vinyl]-oxazole] | 144 to 146 °C | 250 to 1000 nM
Cn1nccc1CC[S+]([O-])Cc1ccc(OCc2coc(/C=C/c3ccc(C(F)(F)F)cc3)n2)cc1 (centres unmarked) [Example 9, 4-{4-[2-(2-Methyl-2H-pyrazol-3-yl)-ethanesulfinylmethyl]-phenoxymethyl}-2-[2-(E)-(4-trifluoromethyl-phenyl)-vinyl]-oxazole] | 172 to 174 °C | 250 to 1000 nM
Cn1nccc1CCS(=O)(=O)Cc1ccc(OCc2coc(/C=C/c3ccc(C(F)(F)F)cc3)n2)cc1 [Example 10, 4-{4-[2-(2-Methyl-2H-pyrazol-3-yl)-ethanesulfonylmethyl]-phenoxymethyl}-2-[2-(4-trifluoromethyl-phenyl)-vinyl]-oxazole] | 204 °C | –

Further lines, with some results ahead:

melting point | SMILES | IC50 [1]
77 to 78 °C | Cc1cc(OCc2coc(/C=C/c3ccc(OC(F)(F)F)cc3)n2)ccc1COCCc1ccnn1C [Example 1, 4-{3-Methyl-4-[2-(E)-(2-methyl-2H-pyrazol-3-yl)-ethoxymethyl]-phenoxymethyl}-2-[2-(4-trifluoromethoxy-phenyl)-vinyl]-oxazole] | 95 nM
96 to 97 °C | Cc1cc(OCc2coc(/C=C/c3ccc(C(F)(F)F)cc3)n2)ccc1COCCc1ccnn1C [Example 2, 4-{3-Methyl-4-[2-(E)-(2-methyl-2H-pyrazol-3-yl)-ethoxymethyl]-phenoxymethyl}-2-[2-(4-trifluoromethyl-phenyl)-vinyl]-oxazole] | 5 to 250 nM
106 to 107 °C | Cc1cc(OCc2coc(/C=C/c3ccc(Cl)cc3)n2)ccc1COCCc1ccnn1C [Example 3, 2-[2-(E)-(4-Chloro-phenyl)-vinyl]-4-{3-methyl-4-[2-(2-methyl-2H-pyrazol-3-yl)-ethoxymethyl]-phenoxymethyl}-oxazole] | 5 to 250 nM
138 to 139 °C | Cc1cc(OCc2coc(/C=C/c3ccc(OC(F)(F)F)cc3)n2)ccc1C[S+]([O-])CCc1ccnn1C (centres unmarked) [Example 5, 4-{3-Methyl-4-[2-(2-methyl-2H-pyrazol-3-yl)-ethanesulfinylmethyl]-phenoxymethyl}-2-[2-(E)-(4-trifluoromethoxy-phenyl)-vinyl]-oxazole] | –
161 to 162 °C | Cc1cc(OCc2coc(/C=C/c3ccc(C(F)(F)F)cc3)n2)ccc1C[S+]([O-])CCc1ccnn1C (centres unmarked) [Example 7, 4-{3-Methyl-4-[2-(2-methyl-2H-pyrazol-3-yl)-ethanesulfinylmethyl]-phenoxymethyl}-2-[2-(E)-(4-trifluoromethyl-phenyl)-vinyl]-oxazole] | 5 to 250 nM
